Reference: patent US8506930B2, “Compounds having affinity for amyloid” (Nihon Medi-Physics Co., Ltd., priority 2006, dated 2013)

Columns and labels:
[1] = molecular target: T1, amyloid (aggregated Aβ1-40) (Homo sapiens, UniProt P05067); experiment: Measurement of binding to amyloid (radiolabelled compound, glass fiber filtration); settings: amyloid 2.5-1000 nmol/L, 22° C., 3 hours
T1 construct: Aβ1-40 (Peptide Institute, INC.) was dissolved in phosphate buffer (pH 7.4); purchased Peptide Institute, INC
Experimental: (7) A relation between the amount of the Compound I-6 binding to amyloid and the amount of added amyloid was evaluated from the measurement results of (6). Unspecific binding was determined using a sample to which the Compound I-2 (non-RI labeled compound) was added to become 100 nM (at a final concentration) above in (4) (Example I-7).
(8) Using [^125I]-IMPY synthesized in the above Reference Example I-6, the same procedure as the above (2) to (6) were carried out to obtain control data (Comparative Example I-1).
A relation between the concentration of amyloid in the sample solution and the radioactive count on the glass fiber filter measured above in (6) is shown in FIG. 1-11. The radioactivity on the glass fiber was increased proportionally to the concentration (addition amount) of amyloid (Example I-7). […] Therefore, the radioactive count on the glass fiber is a value reflecting the amount of the compound attached to amyloid, and the slope of the graph which plotted the radioactive count relative to the concentration of amyloid is a value which can be an index representing the intensity of binding to amyloid.

[2] = molecular target: T2, intracerebral amyloid (aggregated Aβ1-40 injected into amygdaloid nucleus) (Homo sapiens, UniProt P05067); experiment: Confirmation of imaging of amyloid in brain (ex vivo autoradiogram), Example I-22; design: species or system male Wistar rat; settings: brain slice 60 minutes after tail vein injection
T2 construct: Aβ1-40 (Peptide Institute, INC.) was dissolved in phosphate buffer (pH 7.4); purchased Peptide Institute, INC
Experimental: (§1) (1) Aβ1-40 (manufactured by Peptide Institute, INC.) was dissolved in phosphate buffer (pH 7.4) and shaken at 37° C. for 72 hours, to obtain 1 mg/mL of a suspension of aggregated Aβ (hereinafter referred to as amyloid suspension in this Example).
(§2) (2) 25 μL (corresponding to 25 μg) of the amyloid suspension was injected into an amygdaloid nucleus on one side of a male Wistar rat (7-week old). As a control, 25 μL of a phosphate buffered physiological saline solution (pH 7.4) was injected into an amygdaloid nucleus on the other side of the rat. The rats were examined 1 day after the injection of the amyloid suspension and the phosphate buffered physiological saline solution (pH 7.4).
(§3) This solution was injected into the rat through the tail vein (dosage: 0.5 mL, dosed radioactivity: 16 MBq equivalent).
(§4) (4) Brain was removed 60 minutes after the injection to prepare a brain slice of 10 μm in thickness with a microtome (type: CM3050S, manufactured by LEICA). The brain slice was exposed to an imaging plate for 20 hours, and then image analysis was carried out by use of a Bio-imaging Analyzer (type: BAS-2500; manufactured by FUJIFILM Corporation).

[3] = system: intracerebral amyloid (aggregated Aβ1-40 injected into amygdaloid nucleus); experiment: as above; design: species or system male Wistar rat; settings: brain slice 60 minutes after tail vein injection
Experimental: as §1, §2, §3, §4

[4] = Transferability into brain and clearance, Examples I-20 to I-21; format: in vivo, male Wistar rats; settings: rats, intravenous injection, Table 1-7
From the text: Three animals were used for Experiment I-20 and Comparative Experiment I-9, and two animals were used for Experiment I-21 at the respective time points.

[5] = Transferability into brain and clearance (2), Example I-30; format: in vivo, male Wistar rats; settings: rats, intravenous injection, Table 1-10
Experimental: 0.05 mL each of these solutions was injected under thiopental anesthesia into the tail vein of respective Wistar rats (7-week old). The rats were sacrificed by bleeding from abdominal artery, and brains were removed and subjected to measurement of mass of brains and further subjected to measurement of radioactivity (hereinafter referred to as A in this Example) with a single channel analyzer (detector type: SP-20 manufactured by OHYO KOKEN KOGYO Co., Ltd.) 2, 5, 30 and 60 minutes after the injection. Also, radioactivity (hereinafter referred to as B in this Example) of the rest of the whole body was measured in the same manner as above. Using these measurement results, radioactive distribution per unit weight of brain (% ID/g) at the respective time points were calculated in accordance with the following formula (1-7).
Three animals were used for experiment at the respective time points.

[6] = system: intracerebral amyloid (aggregated Aβ1-42 injected into amygdaloid nucleus); experiment: Confirmation of imaging of amyloid in brain (ex vivo autoradiogram), Example I-31; design: species or system male Wistar rat
Experimental: (§5) (1) Aβ1-42 (Wako) was dissolved in phosphate buffer (pH 7.4) and shaken at 37° C. for 72 hours, to obtain a 1 mg/mL suspension of aggregated Aβ (hereinafter referred to as amyloid suspension in this Example).
(§6) (2) 2.5 μL (corresponding to 25 μg) of the amyloid suspension was injected into an amygdaloid nucleus on one side of a male Wistar rat (7-week old). As a control, 2.5 μL of a phosphate buffered physiological saline solution (pH 7.4) was injected into an amygdaloid nucleus on the other side of the rat. The rats were examined 1 day after the injection of the amyloid suspension and the phosphate buffered physiological saline solution (pH 7.4).
(§7) This solution was injected under thiopental anesthesia into the rat through the tail vein (dosage: 0.5 mL, dosed radioactivity: 11-15 MBq equivalent).
as §4

[7] = molecular target: T3, intracerebral amyloid (aggregated Aβ1-42 injected into amygdaloid nucleus) (Homo sapiens, UniProt P05067); experiment: as above; design: species or system male Wistar rat; settings: brain slice 60 minutes after tail vein injection
T3 construct: Aβ1-42 (Wako) was dissolved in phosphate buffer (pH 7.4); purchased Wako
Experimental: as §5, §6, §7, §4

[8] = system: intracerebral amyloid (aggregated Aβ1-42 injected into amygdaloid nucleus); experiment: Confirmation of imaging of amyloid in brain (ex vivo autoradiogram), Examples II-24 to II-25; design: species or system male Wistar rat; settings: for accumulation of radioactivity at sites other than the site to which amyloid was injected: autoradiogram, 60 minutes after tail vein injection; for accumulation of radioactivity in amygdaloid nucleus on the side to which the physiological saline solution was injected: brain slice 60 minutes after tail vein injection
Experimental: as §6, §7, §4

[9] = molecular target: T3, intracerebral amyloid (aggregated Aβ1-42 injected into amygdaloid nucleus); experiment: as above; design: species or system male Wistar rat; settings: brain slice 60 minutes after tail vein injection
Experimental: as §6, §7, §4

[10] = Transferability into brain and clearance, Examples II-22 to II-23; format: in vivo, male Wistar rats; settings: rats, intravenous injection, Table 2-7
Experimental: 0.05 mL each of the prepared sample solutions was injected under thiopental anesthesia into the tail vein of the respective Wistar rat (7-week old). The rats were sacrificed by bleeding from abdominal artery, and brains were removed and subjected to measurement of mass of brains and further subjected to measurement of radioactivity (hereinafter referred to as A in this Example) with a single channel analyzer (detector type SP-20 manufactured by OHYO KOKEN KOGYO Co., Ltd.) 2, 5, 30, and 60 minutes after the injection. Further, the radioactivity level of the rest of the whole body was measured in the same manner as above (hereinafter referred to as B in this Example). Using these measurement results, radioactive distribution per unit weight of brain (% ID/g) at the respective time points were calculated in accordance with the following formula (2-5).
Three animals were used for the experiment at the respective time points.

[11] = Partition coefficient based on the octanol extraction method, Examples II-20 to II-21; format: physicochemical; settings: octanol / 10 mmol/L phosphate buffer (pH 7.4); Table 2-6
Experimental: To 2 mL of octanol, 10 μL each of the prepared sample solution was added, and 2 mL of 10 mmol/L phosphate buffer (pH 7.4) was further added, followed by stirring for 30 seconds. After the mixture was centrifuged with a low-speed centrifuge (2000 rpm×60 min.), the octanol layer and the water layer were sampled each in an amount of 1 mL, and subjected to measurement of radioactivity count with an autowell gamma system (Type: ARC-301B, manufactured by Aloka). Using the obtained radioactivity count, log Poctanol was calculated in accordance with the equation (2-4).

[12] = rats, [11C]-labeled; cited from earlier work

T3 sequence (P05067 672-713): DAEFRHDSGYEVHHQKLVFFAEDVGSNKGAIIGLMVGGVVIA
T1 sequence (P05067 672-711 limits assumed): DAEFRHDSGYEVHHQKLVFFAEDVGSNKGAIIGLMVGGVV
T2 sequence (P05067 672-711): as the sequence (P05067 672-711 limits assumed) above

Row | SMILES | accumulation of radioactivity at sites other than the site to which amyloid was injected [8] | accumulation of radioactivity in amygdaloid nucleus on the side to which the physiological saline solution was injected [8] | accumulation of radioactivity in amygdaloid nucleus on the side to which the amyloid suspension was injected [9] | Radioactive distribution in brain per unit weight, After 2 min. [10] [% ID/g] | Radioactive distribution in brain per unit weight, After 5 min. [10] [% ID/g] | Radioactive distribution in brain per unit weight, After 30 min. [10] [% ID/g] | Radioactive distribution in brain per unit weight, After 60 min. [10] [% ID/g] | logPoctanol value [11] | further results
1 | FCCCOc1ccc(-c2cn3cc([125I])ccc3n2)cc1 [Compound I-6, 2-[4′-(3″-fluoropropoxy)phenyl]-6-[^125I]iodoimidazo[1,2-a]pyridine] |  |  |  |  |  |  |  |  | slope of radioactive count on the glass fiber relative to the concentration of amyloid (index of intensity of binding to amyloid) [1]: greater than the slope for [^125I]-IMPY
2 | FCCCOc1ccc(-c2cn3cc([123I])ccc3n2)cc1 [Compound I-7, 2-[4′-(3″-fluoropropoxy)phenyl]-6-[^123I]iodoimidazo[1,2-a]pyridine] |  |  |  |  |  |  |  |  | accumulation of radioactivity in amygdaloid nucleus on the side to which the amyloid suspension was injected [2]: marked accumulation of radioactivity; accumulation of radioactivity in amygdaloid nucleus on the side to which the physiological saline solution was injected [3]: no significant accumulation of radioactivity; Radioactive distribution in brain per unit weight, After 2 min. ([4]; 2 min.): 1.10 % ID/g; Radioactive distribution in brain per unit weight, After 5 min. ([4]; 5 min.): 0.75 % ID/g; Radioactive distribution in brain per unit weight, After 30 min. ([4]; 30 min.): 0.12 % ID/g; Radioactive distribution in brain per unit weight, After 60 min. ([4]; 60 min.): 0.05 % ID/g
3 | FCCOc1ccc(-c2cn3cc([123I])ccc3n2)cc1 [Compound I-9, 2-[4′-(2″-fluoroethoxy)phenyl]-6-[^123I]iodoimidazo[1,2-a]pyridine] |  |  |  |  |  |  |  |  | Radioactive distribution in brain per unit weight, After 2 min. ([5]; 2 min.): 0.72 % ID/g; Radioactive distribution in brain per unit weight, After 5 min. ([5]; 5 min.): 0.49 % ID/g; Radioactive distribution in brain per unit weight, After 30 min. ([5]; 30 min.): 0.07 % ID/g; Radioactive distribution in brain per unit weight, After 60 min. ([5]; 60 min.): 0.02 % ID/g; accumulation of radioactivity at sites other than the sites to which amyloid was injected ([6]; autoradiogram, 60 minutes after tail vein injection): little accumulation of radioactivity; accumulation of radioactivity in amygdaloid nucleus on the side to which the physiological saline solution was injected ([6]; brain slice 60 minutes after tail vein injection): no significant accumulation of radioactivity; accumulation of radioactivity in amygdaloid nucleus on the side to which the amyloid suspension was injected [7]: marked accumulation of radioactivity
4 | OCCOc1cccc(-c2cn3cc([123I])ccc3n2)c1 [Compound II-4, 2-[3′-(2″-hydroxyethoxy)phenyl]-6-[^123I]iodoimidazo[1,2-a]pyridine] | little accumulation of radioactivity | no significant accumulation of radioactivity | marked accumulation of radioactivity | 0.56 | 0.28 | 0.04 | 0.01 | 2.5 | 
5 | OCCCOc1ccc(-c2cn3cc([123I])ccc3n2)cc1 [Compound II-6, 2-[4′-(3″-hydroxypropoxy)phenyl]-6-[^123I]iodoimidazo[1,2-a]pyridine] | little accumulation of radioactivity | no significant accumulation of radioactivity | marked accumulation of radioactivity | 0.81 | 0.56 | 0.07 | 0.02 | 2.1 | 
6 | CNc1ccc(/C=C/c2ccc(O)cc2)cc1 [SB-13, (E)-4-methylamino-4′-hydroxystilbene] |  |  |  |  |  |  |  |  | clearance from normal tissues [12]: it cannot be said that the clearance is sufficiently fast
